Measurements taken from ChEMBL document CHEMBL1132033, “Stabilization of microtubules by Combretastatin D derivatives” (Bioorg Med Chem Lett, 1999).

Columns and labels:
[1] = tested on: 1A9; test: Inhibitory activity against Taxol resistant 1A9 cell lines; assay type: functional, cell-based; conditions: Homo sapiens
[2] = tested on: 1A9/ptx-10; test: Inhibitory activity against Taxol resistant PTX10 cell lines; assay type: functional, cell-based; conditions: Homo sapiens
[3] = tested on: 1A9/ptx-22; test: Inhibitory activity against Taxol resistant PTX22 cell lines; assay type: functional, cell-based; conditions: Homo sapiens
[4] = target: Tubulin alpha chain (Sus scrofa) (UniProt P02550); test: Inhibitory activity against tubulin polymerization at 0.25 mM concentration; assay type: functional
[5] = target: Tubulin alpha chain (Sus scrofa) (UniProt P02550); test: Inhibitory activity against tubulin polymerization at 0.5 mM concentration; assay type: functional
[6] = target: Tubulin alpha chain (Sus scrofa) (UniProt P02550); test: Inhibitory activity against tubulin polymerization at 1.0 mM concentration; assay type: functional
[7] = target: Tubulin alpha chain (Sus scrofa) (UniProt P02550); test: Inhibitory activity against tubulin polymerization at 2.0 mM concentration; assay type: functional

Sequence of Tubulin alpha chain (Sus scrofa) (P02550 whole entry, looked up): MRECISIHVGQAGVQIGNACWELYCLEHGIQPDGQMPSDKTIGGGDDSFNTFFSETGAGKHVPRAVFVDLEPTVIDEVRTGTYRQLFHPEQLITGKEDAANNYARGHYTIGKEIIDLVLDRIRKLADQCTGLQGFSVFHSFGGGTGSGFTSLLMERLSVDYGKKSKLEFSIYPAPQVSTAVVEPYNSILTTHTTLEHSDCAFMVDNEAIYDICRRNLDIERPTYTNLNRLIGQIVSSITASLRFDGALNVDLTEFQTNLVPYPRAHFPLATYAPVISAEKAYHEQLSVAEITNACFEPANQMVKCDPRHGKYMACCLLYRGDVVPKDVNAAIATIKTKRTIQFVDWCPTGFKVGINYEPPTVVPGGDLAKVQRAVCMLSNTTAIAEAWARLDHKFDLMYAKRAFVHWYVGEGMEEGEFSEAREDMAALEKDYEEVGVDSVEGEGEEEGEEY

Row | Structure (SMILES) | IC50 [1] | IC50 [2] | IC50 [3] | inhibition [4] | inhibition [5] | inhibition [6] | inhibition [7]
1 | COc1cc2c(c(OC)c1OC)-c1ccc(OC)c(=O)cc1[C@@H](NC(C)=O)CC2 [COLCHICINE] | > 2500 nM | > 2500 nM | > 2500 nM | 4% | 3% | 4% | 0%
2 | COc1ccc2cc1Oc1ccc(cc1)C1OC1COC(=O)CC2 (configuration not stated) | > 2500 nM | > 2500 nM | > 2500 nM | 0% | 20% | 27% | 39%
3 | COc1c(Br)cc2cc1Oc1ccc(cc1)CC(O)COC(=O)CC2 (configuration not stated) | > 2500 nM | > 2500 nM | > 2500 nM | 3% | 21% | 39% | 67%
4 | COc1ccc2cc1Oc1ccc(cc1)CC(I)COC(=O)CC2 (configuration not stated) | > 2500 nM | > 2500 nM | > 2500 nM | 5% | 28% | 35% | 54%
5 | COc1ccc2cc1Oc1ccc(cc1)CC(O)COC(=O)CC2 (configuration not stated) | > 2500 nM | > 2500 nM | > 2500 nM | 27% | 47% | 62% | 76%
6 | COc1ccc2cc1Oc1ccc(cc1)/C=C\COC(=O)CC2 | > 2500 nM | > 2500 nM | > 2500 nM | 16% | 19% | 27% | 35%
